These results are taken from patent US20260297121A1, “MITHRAMYCIN (MTM) 2’ OXIMES” (University of Kentucky Research Foundation, priority 2023, published 2026).

Where two headings read alike, the source gives them in different places.

In general, clearance refers to the volume of plasma or blood freed of the substance per unit of time. Lower therefore signals a low capacity for elimination. As usually defined, the GI50 is the concentration giving 50% growth inhibition. The IC50 is the concentration at which inhibition is half-maximal. In general, logP refers to a log measure of how a compound divides between an organic and an aqueous phase. A higher logP goes with a more lipophilic compound.

Data set [1] is described as follows: Clearance (CL) / pharmacokinetics. Format: in vivo, mice. The conditions noted are these: for clearance: mouse, plasma, iv, Table 2. How it is done: (§1) Exemplary compounds of the presently-disclosed subject matter were assessed for activity, including clearance, potency, and selectivity. Results from studies are compiled in Tables 2-4.
(§2) Desirable clearance was identified at lower values of mL hr^−1kg^−1 (e.g., about ≤10 mL hr^−1 kg^−1), desirable potency was identified at lower values of IC50 (e.g., about ≤10 nM in TC32 cells), and desired selectivity was identified at higher ratios of IC50 in PC3/IC50 in TC32 (e.g. about >10).
Pharmacokinetics of exemplary compounds of the presently-disclosed subject matter were studied in mice following bolus IV dosing. Groups of three mice were administered the compound(s) and blood samples were collected via saphenous bleed. Plasma was separated by centrifugation and extracted to quantitate analytes by LC/MS/MS. Sample analysis followed upon the system meeting system suitability criteria customary for fit for purpose analytical methods. FIG. 1A includes data comparing YL-C09 to mithramycin (MTM) dosed separately. FIG. 1B includes data for YL-B171, YL-C110 and MTM dosed in cassette format.

The next data set deals with TC32. The data set can be described thus: Cytotoxicity, resazurin fluorescence, TC32. Format: cell-based. Particulars: Homo sapiens, TC-32, 72 h, read-out: GI50 TC32, Table 5. How it is done:
(§3) Exemplary compounds of the presently-disclosed subject matter were assessed for cytotoxicity (Table 5) in Ewing sarcoma (TC32) and non-Ewing (PC3 prostate cancer). […] Cells (1000-5000/well) were seeded in 96-well plates and allowed to attach and grow for 24 hr prior to adding compounds in half-log increments from 0.3 nM-10 μM. Cell viability was assessed after 72 hr continuous incubation with compounds using resazurin fluorescence. GI50 values were estimated using GraphPad Prism.
A general note: Alamar Blue is a resazurin reagent that responds to reducing activity.

Data set [2] has as its system PC3. The data set can be described thus: IC50 in PC3 cells. The class given is cell-based. Particulars: Homo sapiens, head prints PC2, text PC3. As for the experimental part: as §1, §2
Data set [3] has as its system PC3. The data set can be described thus: Cytotoxicity, resazurin fluorescence, PC3. Format: cell-based. Particulars: Homo sapiens, PC-3, 72 h, read-out: GI50 PC3, Table 5. How it is done: as §3
The subject of the next data set is TC32 cells. The data set is described as follows: Potency IC50 in TC32 cells and selectivity. The class given is cell-based. Particulars: Homo sapiens. How it is done: as §1, §2
The nature of another data set: log P. Format: physicochemical.
[4] abbreviates: PC-3, read-out: IC50 PC2, Table 2.
The mark [5] stands for this setting: PC-3, read-out: IC50 PC2, Table 3.
Where [6] appears, read: PC-3, read-out: IC50 PC2, Table 4.
The mark [7] stands for this setting: TC-32, Table 2, read-out: IC50 TC32.
Where [8] appears, read: TC-32, Table 4, read-out: IC50 TC32.

With `CO[C@H](C(=NOCCNC(=O)c1[nH]c2ccc(Cl)cc2c1-c1ccc(Cl)cc1)[C@@H](O)[C@@H](C)O)[C@@H]1Cc2cc3cc(O[C@H]4C[C@@H](O[C@H]5C[C@@H](O)[C@H](O)[C@@H](C)O5)[C@H](O)[C@@H](C)O4)c(C)c(O)c3c(O)c2C(=O)[C@H]1O[C@H]1C[C@@H](O[C@H]2C[C@@H](O[C@H]3C[C@](C)(O)[C@H](O)[C@@H](C)O3)[C@@H](O)[C@@H](C)O2)[C@H](O)[C@@H](C)O1` [YL-C82], the CL in data set [1] (Table 3) and in data set [1] (Table 4) was 0.383 mL/min/kg throughout. The “PK Improvement” value in data set [1] (Table 4) was found to be 68.6. The clearance in data set [1] is 0.383 mL/min/kg. The GI50 with TC32 was 356 nM; in the data set with PC3 [3] it was 805 nM. The IC50 in the data set with PC3 [2] (setting [4]) was found to be 515 nM; in the data set with PC3 [2] (setting [5]), 218 nM; in the data set on PC3 [2] (setting [6]), 515 nM; in the data set on TC32 cells (setting [7]), 20.2 nM; in the data set on TC32 cells (setting [8]) it was 20.2 nM; with TC32 cells (TC-32, read-out: IC50 TC32, Table 3) it was 12 nM. The figures for the logP in “log P” (Table 2), in “log P” (Table 3) and in the data set “log P” (Table 4) were 4.21, 4.21 and 4.2, respectively.

In turn, `COC(C(=NOCCNC(=O)c1[nH]c2ccc(Cl)cc2c1-c1ccnn1C)C(O)C(C)O)C1Cc2cc3cc(OC4CC(OC5CC(O)C(O)C(C)O5)C(O)C(C)O4)c(C)c(O)c3c(O)c2C(=O)C1OC1CC(OC2CC(OC3CC(C)(O)C(O)C(C)O3)C(O)C(C)O2)C(O)C(C)O1` (stereo not drawn) [YL-C104] gave a clearance in data set [1] of 0.517 mL/min/kg. Besides, the GI50 in the data set with TC32 was determined as 34 nM; with PC3 [3], 133 nM. Moreover, the IC50 with PC3 [2] (setting [4]) stood at 23 nM; in the data set on TC32 cells (setting [7]), 5.63 nM. For the same molecule, in “log P” (Table 2), the logP was 1.77.

With `COC(C(=NOCCNC(=O)c1[nH]c2ccc(Cl)cc2c1-c1cccs1)C(O)C(C)O)C1Cc2cc3cc(OC4CC(OC5CC(O)C(O)C(C)O5)C(O)C(C)O4)c(C)c(O)c3c(O)c2C(=O)C1OC1CC(OC2CC(OC3CC(C)(O)C(O)C(C)O3)C(O)C(C)O2)C(O)C(C)O1` (stereo not drawn) [YL-C106], the CL in data set [1] (Table 3) and in data set [1] (Table 4) was 0.317 mL/min/kg throughout. Further, the “PK Improvement” value in data set [1] (Table 4) was 83.1. For the same molecule, in data set [1], the clearance was 0.317 mL/min/kg. In addition, the figures for the GI50 with TC32 and with PC3 [3] were 99 nM and 236 nM, respectively. Also, the IC50 worked out at 202 nM with PC3 [2] (setting [4]); 202 nM with PC3 [2] (setting [5]); 202 nM in the data set on PC3 [2] (setting [6]); 17.2 nM with TC32 cells (setting [7]); 17 nM with TC32 cells (TC-32, Table 3, read-out: IC50 TC32); 17.2 nM in the data set with TC32 cells (setting [8]). For the same molecule, the logP in the data set “log P” (Table 2), in “log P” (Table 3) and in the data set “log P” (Table 4) was 3.3 throughout.

In the case of `CO[C@H](C(=NOCCNC(=O)c1[nH]c2ccc(Cl)cc2c1-c1cnoc1)[C@@H](O)[C@@H](C)O)[C@@H]1Cc2cc3cc(O[C@H]4C[C@@H](O[C@H]5C[C@@H](O)[C@H](O)[C@@H](C)O5)[C@H](O)[C@@H](C)O4)c(C)c(O)c3c(O)c2C(=O)[C@H]1O[C@H]1C[C@@H](O[C@H]2C[C@@H](O[C@H]3C[C@](C)(O)[C@H](O)[C@@H](C)O3)[C@@H](O)[C@@H](C)O2)[C@H](O)[C@@H](C)O1` [YL-C108], in data set [1], the clearance was 0.4 mL/min/kg. The GI50 with TC32 is 34 nM; in the data set on PC3 [3], 126 nM. Moreover, the IC50 in the data set on PC3 [2] (setting [4]) is 40.3 nM; in the data set with TC32 cells (setting [7]), 6.12 nM. The molecule further had a logP in the data set “log P” (Table 2) of 1.44.

As for `CO[C@H](C(=NOCCNC(=O)c1[nH]c2ccc(F)cc2c1-c1ccc(Cl)cc1)[C@@H](O)[C@@H](C)O)[C@@H]1Cc2cc3cc(O[C@H]4C[C@@H](O[C@H]5C[C@@H](O)[C@H](O)[C@@H](C)O5)[C@H](O)[C@@H](C)O4)c(C)c(O)c3c(O)c2C(=O)[C@H]1O[C@H]1C[C@@H](O[C@H]2C[C@@H](O[C@H]3C[C@](C)(O)[C@H](O)[C@@H](C)O3)[C@@H](O)[C@@H](C)O2)[C@H](O)[C@@H](C)O1` [YL-C118], the clearance in data set [1] is 0.467 mL/min/kg. Also, the GI50 worked out at 232 nM with TC32 and 417 nM with PC3 [3]. Further, the figures for the IC50 in the data set with PC3 [2] (setting [4]) and with TC32 cells (setting [7]) were 582 nM and 36.6 nM, respectively. In the data set “log P” (Table 2), this molecule returned a logP of 3.64.
